≈ marks a conversion by molar mass, not a printed value.
Experiments:
goûteurs expérimentés = assay: Sweetening power judged by a panel of eight experienced tasters against a sucrose reference solution; format: in vivo; details: for pouvoir édulcorant: weight basis
Description: Le pouvoir édulcorant des composés ainsi préparés a été évalué par un groupe de huit goûteurs expérimentés. Pour cela, les composés, en solution aqueuse à des concentrations variables, sont comparés, sur le plan gustatif, à une solution témoin de saccharose à 2 % et dans certains cas à 5 % et 10 ^o/o, c'est-à-dire à des concentrations correspondant à celles utilisées lors d'un usage courant. Le pouvoir sucrant des édulcorants de synthèse varie en effet suivant la concentration de la solution de saccharose utilisée comme référence. Le pouvoir édulcorant du composé testé par rapport au saccharose correspond alors au rapport pondéral qui existe entre le composé et le saccharose à égale intensité édulcorante, c'est-à-dire quand les saveurs sucrées de la solution du composé testé et de la solution témoin de saccharose sont considérées, par une majorité de goûteurs, avoir la meme intensité édulcorante.

[1] = Solubility in water at pH 3 (phosphate buffer) near 0 °C, saturated filtrate assayed by HPLC; format: physicochemical; details: for solubility at 1 h: aqueous buffer, pH 3 (phosphate buffer), 0° C, read-out: solubilité; for solubilité, fois plus élevée que celle de l'analogue carbocyclique 4-cyanophényle: ratio to exemple 4 of EP-B-0107597, pH 3, 0° C
Description: La solubilité a été mesurée de manière suivante. On met en suspension dans l'eau à pH 3 (tampon phosphate) et à température voisine de 0° C (ce qui correspond aux conditions de préparation et de stockage des boissons gazeuses) un excès du composé dont veut déterminer la solubilité. On soumet alors la suspension, toujours dans un bain de glace, à l'action des ultrasons pendant 60 min, puis on filtre (sur filtre Millipore Millex-HV 0,45 micromètre). Le composé, qui se trouve ainsi dissous à saturation dans le filtrat, est dosé par chromatographie liquide haute performance (HPLC) par rapport à une solution de référence de concentration connue.

[2] = compared with a 2 % sucrose solution

Compound | pouvoir édulcorant (goûteurs expérimentés; [2]) | further results
COC(=O)[C@H](Cc1ccccc1)NC(=O)[C@H](CC(=O)O)NC(=O)Nc1cccnc1 [Exemple 1, N-(3-pyridylcarbamoyl)-L-aspartyl-L-phénylalanine méthyl ester] | ~100 fois celui du saccharose | 
COC(=O)[C@H](Cc1ccccc1)NC(=O)[C@H](CC(=O)O)NC(=S)Nc1cccnc1 [Exemple 2, N-(3-pyridylthiocarbamoyl)-L-aspartyl-L-phénylalanine méthyl ester] | ~1 000 fois celui du saccharose | 
COC(=O)[C@H](Cc1ccccc1)NC(=O)[C@H](CC(=O)O)NC(=O)Nc1ccc(Cl)nc1 [Exemple 3, N-(2-chloro-5-pyridylcarbamoyl)-L-aspartyl-L-phénylalanine méthyl ester] | ~500 fois celui du saccharose | 
COC(=O)[C@H](Cc1ccccc1)NC(=O)[C@H](CC(=O)O)NC(=O)Nc1ccc(C#N)nc1 [Exemple 4, N-(2-cyano-5-pyridylcarbamoyl)-L-aspartyl-L-phénylalanine méthyl ester] | ~8 000 fois celui du saccharose | fois plus sucré que le saccharose (goûteurs expérimentés; concentration of the sucrose reference not given): 8 000 fois; pouvoir édulcorant (goûteurs expérimentés; compared with a 5 % sucrose solution): ~6 000 fois; pouvoir édulcorant (goûteurs expérimentés; compared with a 10 % sucrose solution): ~4 000 fois; solubility at 1 h [1]: ~70 µg/mL (≈ 159 µM); solubilité, fois plus élevée que celle de l'analogue carbocyclique 4-cyanophényle [1]: ~3,5 fois
N#Cc1ccc(NC(=O)N[C@@H](CC(=O)O)C(=O)NC(c2ccccc2)c2ccco2)cn1 (stereo partly drawn) [Exemple 5, acide N-(2-cyano-5-pyridylcarbamoyl)-L-aspartique N-[(RS)-alpha-(2-furyl)benzyl] alpha-monoamide] | ~700 fois celui du saccharose | 
COC(=O)[C@H](Cc1ccccc1)NC(=O)[C@H](CC(=O)O)NC(=S)Nc1ccc(OC)nc1 [Exemple 6, N-(2-méthoxy-5-pyridylthiocarbamoyl)-L-aspartyl-L-phénylalanine méthyl ester] | ~1 400 fois celui du saccharose | 
COC(=O)[C@H](Cc1ccccc1)NC(=O)[C@H](CC(=O)O)NC(=S)Nc1cnc(C#N)nc1 [Exemple 7, N-(2-cyano-5-pyrimidinylthiocarbamoyl)-L-aspartyl-L-phénylalanine méthyl ester] | ~50 000 fois celui du saccharose | 
COC(=O)[C@H](Cc1ccccc1)NC(=O)[C@H](CC(=O)O)NC(=O)Nc1ccc2nonc2c1 [Exemple 8, N-(5-benzofurazanylcarbamoyl)-L-aspartyl-L-phénylalanine méthyl ester] | ~5 000 fois celui du saccharose | solubility at 1 h [1]: ~180 µg/mL (≈ 395 µM); solubilité, fois plus élevée que celle de l'analogue carbocyclique 4-cyanophényle [1]: ~9 fois
COC(=O)[C@H](Cc1ccccc1)NC(=O)[C@H](CC(=O)O)NC(=O)Nc1ccc2c(c1)no[n+]2[O-] [Exemple 9, N-(1-oxyde-5-benzofurazanylcarbamoyl)-L-aspartyl-L-phénylalanine méthyl ester] | ~2 000 fois celui du saccharose | 
COC(=O)[C@H](Cc1ccccc1)NC(=O)[C@H](CC(=O)O)NC(=O)Nc1ccc2nsnc2c1 [Exemple 10, N-(5-benzothiofurazanylcarbamoyl)-L-aspartyl-L-phénylalanine méthyl ester] | ~500 fois celui du saccharose | 
COC(=O)[C@H](Cc1ccccc1)NC(=O)[C@H](CC(=O)O)NC(=O)Nc1ccc2c(c1)OCO2 [Exemple 11, N-(3,4-méthylènedioxyphénylcarbamoyl)-L-aspartyl-L-phénylalanine méthyl ester] | ~50 fois celui du saccharose | 
COC(=O)[C@H](Cc1ccccc1)NC(=O)[C@H](CC(=O)O)NC(=O)Nc1ccc(C#N)cc1 [exemple 4 du brevet EP-B-0107597, reference compound] |  | solubility at 1 h [1]: ~20 µg/mL (≈ 45.6 µM)
